Measured values from US20250282797A1, “CRYSTALLINE FORM OF FGFR4 INHIBITOR AND USE THEREOF” (CSPC ZHONGQI PHARMACEUTICAL TECHNOLOGY (SHIJIAZHUANG) CO., …, priority 2022, published 2025).
≈ marks a conversion by molar mass, not a printed value. Like-named read-outs stand apart in the source and are kept apart here. Values belong to the compound of their own block, whether it stands above or below them.

Tests used:
[1] = Grinding stability study; type: physicochemical
[2] = Dynamic vapor sorption/desorption (DVS) analysis; type: physicochemical
Method: 2. Dynamic Vapor Sorption/Desorption (DVS) Analysis
Instrument: DVS Intrinsic plus (SMS, UK).
Method: a sample is placed in a tared sample basket, the weight of the sample is automatically measured, and the sample is dried at 40° C./0% RH until dm/dt is less than 0.002% and then cooled to 25° C.

[3] = Solubility test; type: physicochemical; details: 200 rpm; for solubility at 24 h: 37 °C, thermodynamic from solid; for FeSSIF Solubility: FeSSIF (pH about 5.00)
Method: Test Example 2: Solubility Test
The crystalline form I sample (5 mg) obtained in Example 1 and the crystalline form II sample (5 mg) obtained in Example 22 were added to a sample bottle, and 1 mL of SGF (simulated gastric fluid), FaSSIF (fasted state simulated intestinal fluid), FeSSIF (fed state simulated intestinal fluid), and water were separately added. The resulting suspensions were shaken at 37° C. at a rotation speed of 200 rpm for 24 h and filtered. The resulting filtrates were subjected to the concentration test, and the resulting solids were subjected to XRPD characterization.

[4] = Solid stability study; type: physicochemical; details: 7 days
Method: Test Example 3: Solid Stability Study
The crystalline form I (5 mg) obtained in Example 1 and the crystalline form II (5 mg) obtained in Example 22 were weighed into sample bottles; the samples were subjected to solid-state stability studies after being placed under the conditions of 60° C. (closed) and 40° C./75% RH (open); and sampling was performed on day 7 for XRPD characterization.

[5] = Competitive suspension experiments; type: physicochemical; details: for XRPD result (room temperature): 25° C.
Method: Test Example 1: Competitive Suspension Experiments
Equal amounts (6 mg) of the crystalline form I sample of the compound of formula B obtained in Example 1, the crystalline form II sample of the compound of formula B obtained in Example 22, and the crystalline form III sample of the compound of formula B obtained in Example 33 were mixed. The resulting mixture was separately stirred at room temperature (25° C.) and at a high temperature (50° C.) for 24 h, 2 days, and 7 days in the following solvents, and the remaining solids were subjected to the XRPD test.

[6] = Pharmacokinetic study in rats; type: in vivo, SD rats; details: rat
Source text: Test Example 6: Pharmacokinetic Study of Compound of Formula B in Rats
Assay drug: the compound of formula B obtained in Preparation Example 1.
Instrument: LC-MS/MS-13 (TQ5500, Triple quad), with the operation software of Xcalibur2.0.7 (Thermo Fisher Scientific, USA); LC-10ADvp liquid chromatography system (Shimadzu, Japan); Shimadzu LC-20AD liquid chromatography pump; Shimadzu CBM-20A system controller; Shimadzu CTO-20A column oven; and SIL-20AC autosampler (Shimadzu, Japan). Chromatographic column: Agilent Zorbax SB-CN 3.5 u 100×2.1 mm; column temperature: 40° C.; mobile phase A: 0.1% aqueous formic acid solution; mobile phase B: a 0.1% solution of formic acid in acetonitrile; flow rate: 0.60 mL/min. The gradient elution was performed as follows: from 0 to 0.5 min, the mobile phase B was increased from 1% to 90%; from 0.5 to 1.2 min, 90% of the mobile phase B was maintained; starting from 1.21 min, the mobile phase B was changed back to 1%; and elution was stopped at 1.60 min.
Animals: 6 male SD rats were supplied by Shanghai Sippe-Bk Lab Animal Co., Ltd. The body weight range was 180-220 g. After purchase, the rats were bred in the laboratory of the experimental animal center for 2 days for later use. The rats were fasted 10-14 h before administration and 4 h after administration, and given ad libitum access to water during the assay. The rats were randomly divided into two groups, with 3 rats in each group. One group was intravenously injected, and the other group was intragastrically administered.
Preparation of intragastric administration solution: the compound of formula B (4.85 mg) was precisely weighed out, and a mixed aqueous solution (9.70 mL) containing 0.5% methylcellulose and 0.4% Tween-80 was added, followed by sonication at room temperature to prepare a 0.5 mg/mL suspension. Preparation of intravenous injection solution: the compound of formula B (2.79 mg) was precisely weighed out, and DMSO (21 μL), PEG200 (2.79 mL), and normal saline (4.164 mL) were added to prepare a 0.4 mg/mL solution.
Blood was collected in the intragastric administration group about 0.25 h before administration and 0.25 h, 0.5 h, 1 h, 1.5 h, 2 h, 4 h, 6 h, 8 h, 12 h, and 24 h after administration. Blood was collected in the intravenous administration group about 0.25 h before administration and 0.083 h, 0.25 h, 0.5 h, 0.75 h, 1 h, 2 h, 4 h, 8 h, 12 h, and 24 h after administration. The blood was collected from the jugular vein or other venipuncture at 0.25 mL/time point and anticoagulated with EDTA-K2 or EDTA-K3. The collected blood was placed on the ice. After the blood samples were collected, plasma was separated by centrifugation (centrifugation conditions: 6800 g/min, 6 min, 2-8° C.). The collected plasma samples were stored in a refrigerator at −80° C. for testing prior to analysis.
The compound of the formula B was accurately weighed out and formulated into different concentrations, and quantitative analysis was performed on a mass spectrometer to establish a standard curve. The concentration of the compound of formula B in the plasma described above was then measured to obtain the concentrations of the compound of formula B at different time points. All the measured data were collected and processed by relevant software, and pharmacokinetic parameters (mainly including kinetic parameters Tmax, T1/2, Cmax, AUC0-t, etc.) were calculated by adopting a statistical moment method. […]

[7] = Dichloromethane/acetonitrile (V:V = 1:2), 0.5 mL, 24 h
[8] = Dichloromethane/acetonitrile (V:V = 1:2), 0.5 mL, 7 days
[9] = Dichloromethane/ethanol (V:V = 1:4), 0.5 mL, 24 h
[10] = Dichloromethane/ethanol (V:V = 1:4), 0.5 mL, 7 days
[11] = N,N-Dimethylformamide, 0.5 mL, 24 h
[12] = N,N-Dimethylformamide, 0.5 mL, 7 days
[13] = Water/acetone (V:V = 1:1), 1 mL, 2 days
[14] = Water/acetone (V:V = 2:8), 1 mL, 2 days
[15] = Water/acetone (V:V = 5:95), 1 mL, 2 days
[16] = male, SD, plasma, iv, intravenously injected, 2.0 mg/kg
[17] = male, SD, plasma, po, intragastrically administered, 5 mg/kg

Grinding stability result (crystalline form, XRPD) ([1]; Solid grinding, 2 min): unchanged | Grinding stability result (crystalline form, XRPD) ([1]; Solid grinding, 5 min): unchanged, but the crystallinity | Grinding stability result (crystallinity, XRPD) ([1]; Solid grinding, 5 min): became worse | Grinding stability result (crystalline form, XRPD) ([1]; Solvent grinding, Acetone): unchanged | Grinding stability result (crystalline form, XRPD) ([1]; Solvent grinding, Acetonitrile): unchanged | Grinding stability result (crystalline form, XRPD) ([1]; Solvent grinding, Dichloromethane): unchanged | Grinding stability result (crystalline form, XRPD) ([1]; Solvent grinding, Ethanol): unchanged | Grinding stability result (crystalline form, XRPD) ([1]; Solvent grinding, Methanol): unchanged | hygroscopic weight gain ([2]; DVS, 0-90% RH, 25° C.): about 0.24% | hygroscopicity ([2]; DVS, 0-90% RH, 25° C.): almost non-hygroscopic | crystalline form of the sample after the DVS test ([2]; XRPD after DVS): not changed | solubility at 24 h ([3]; FaSSIF (fasted state simulated intestinal fluid), pH 6.5, fassif, FaSSIF (pH about 6.50), read-out: FaSSIF Solubility): 26 µg/mL (≈ 50.5 µM) | FeSSIF Solubility ([3]; 37° C., 24 h): 14 µg/mL | solubility at 24 h ([3]; SGF (simulated gastric fluid), pH 1.2, simulated gastric fluid, SGF (pH about 1.20), read-out: SGF Solubility): > 5000 µg/mL | Water Solubility ([3]; 37° C., 24 h): 3.1 µg/mL | XRPD result at 40° C./75% RH (open) [4]: Unchanged | XRPD result at 60° C. (closed) [4]: Unchanged
SMILES: N#Cc1cnc(NC(=O)N2CCCc3cc(CN4CCN5CCC[C@H]5C4=O)c(C=O)nc32)cc1NC1CC1 [Crystalline form I]

XRPD result (room temperature) [5, 7]: form I + II | XRPD result (50° C.) [5, 7]: form I + II | XRPD result (room temperature) [5, 8]: form I | XRPD result (50° C.) [5, 8]: form I | XRPD result (room temperature) [5, 9]: form I + II | XRPD result (50° C.) [5, 9]: form I + II | XRPD result (room temperature) [5, 10]: form I | XRPD result (50° C.) [5, 10]: form I | XRPD result (room temperature) [5, 11]: form I + II | XRPD result (50° C.) [5, 11]: form I + II | XRPD result (room temperature) [5, 12]: form I | XRPD result (50° C.) [5, 12]: form I | XRPD result (room temperature) ([5]; Water, 0.5 mL, 7 days): form I + II | XRPD result (50° C.) ([5]; Water, 0.5 mL, 7 days): form I + II | XRPD result (room temperature) [5, 13]: form I + II | XRPD result (50° C.) [5, 13]: form I | XRPD result (room temperature) [5, 14]: form I + II | XRPD result (50° C.) [5, 14]: form I | XRPD result (room temperature) [5, 15]: form I + II | XRPD result (50° C.) [5, 15]: form I
SMILES: N#Cc1cnc(NC(=O)N2CCCc3cc(CN4CCN5CCC[C@H]5C4=O)c(C=O)nc32)cc1NC1CC1

FaSSIF Solubility ([3]; FaSSIF (pH about 6.50), 37° C., 24 h): 19 µg/mL | FeSSIF Solubility ([3]; 37° C., 24 h): 5.5 µg/mL | SGF Solubility ([3]; SGF (pH about 1.20), 37° C., 24 h): >5000 µg/mL | Water Solubility ([3]; 37° C., 24 h): 1.5 µg/mL | XRPD result at 40° C./75% RH (open) [4]: Unchanged | XRPD result at 60° C. (closed) [4]: Unchanged
SMILES: N#Cc1cnc(NC(=O)N2CCCc3cc(CN4CCN5CCC[C@H]5C4=O)c(C=O)nc32)cc1NC1CC1 [Crystalline form II]

AUC(0-t) [6, 16]: 2550 ng·h/mL | clearance [6, 16]: 13.4 mL/min/kg | half-life [6, 16]: 1.23 h | bioavailability ([6]; male, SD, plasma, oral, intragastric 5 mg/kg vs intravenous 2.0 mg/kg, read-out: absolute bioavailability): 35.3% | AUC(0-t) [6, 17]: 2250 ng·h/mL | Cmax [6, 17]: 597 ng/mL | half-life [6, 17]: 1.24 h | Tmax ([6]; male, SD, plasma, po, intragastrically administered, 5 mg/kg, read-out: time at which the plasma concentration reached the peak value (Tmax)): 2.5 h | volume distribution ([6]; intravenously injected, 2.0 mg/kg): 0.973 L/kg
SMILES: N#Cc1cnc(NC(=O)N2CCCc3cc(CN4CCN5CCC[C@@H]5C4=O)c(C=O)nc32)cc1NC1CC1 [compound of formula C]
